Reference: patent publication EP0007672A1, “Isocyanoalkenes, process and useful intermediates for their preparation, pharmaceutical and fungicidal preparations containing those isocyanoalkenes and the use of the fungicidal preparations in agriculture” (GIST-BROCADES N.V., priority 1978, dated 1980)
In brackets after ≈: the same amount, converted by molar mass. Read-outs that look alike come from different tables or passages of the source.

Legend:
Test in all cases: MIC (Minimum Inhibitory Concentration)
Format in all cases: cell-based
[1] = tested on: Trichophyton mentagrophytus
Source text: (§1) In addition they may be used for combatting plant diseases, in particular as fungicides. A list of MIC (Minimum Inhibitory Concentration) values for a number of microorganisms is listed herebelow. The figures in the column headings refer to the compounds prepared according to the experimental examples in comparison with the spectrum of 1-[2-(2,4-dichlorophenyl)-2-{(2,4-dichlorophenyl)-methoxy} -ethyl7-1H-imidazole (better known under the name of miconazole, c.f. Merck Index 9th Ed. page 6047) or natamycin (pimaricin, c.f. Merck Index 9th Ed. page 7233).

Trichophyton quickeaneum = Trichophyton quickeaneum A 2040; read-out: MIC values
Source text: as §1

[2] = tested on: Trichophyton soudanese joyeux; settings: Trichophyton soudanese joyeux 440-63; read-out: MIC values
Source text: as §1

Trichophyton verrucosum = tested on: Trichophyton verrucosum
Source text: as §1

Trichophyton rubrum = tested on: Trichophyton rubrum
Source text: as §1

Trichophyton tonsurans = Trichophyton tonsurans 561-50; read-out: MIC values
Source text: as §1

Trichophyton equinum = tested on: Trichophyton equinum
Source text: as §1

[3] = tested on: Trichophyton schoenleinii; settings: Trichophyton schoenleinii 435-63; read-out: MIC values
Source text: as §1

Pasteurella multocida = settings: read-out: MIC values
Source text: as §1

Candida albicans = tested on: Candida albicans
Source text: as §1

Trichophyton violoceum = Trichophyton violoceum 442-62; read-out: MIC values
Source text: as §1

[4] = Trichophyton mentagrophytus 367-68, read-out: MIC values
[5] = Trichophyton mentagrophytus 421-67, read-out: MIC values
[6] = Trichophyton mentagrophytus A 3252, read-out: MIC values
[7] = Trichophyton mentagrophytus R 177, read-out: MIC values
[8] = Trichophyton mentagrophytus R 178, read-out: MIC values
[9] = Trichophyton mentagrophytus RRL 305, read-out: MIC values
[10] = Trichophyton verrucosum 134-66, read-out: MIC values
[11] = Trichophyton verrucosum A 2922, read-out: MIC values
[12] = Trichophyton rubrum 218-65, read-out: MIC values
[13] = Trichophyton rubrum 494-62, read-out: MIC values
[14] = Trichophyton rubrum A 810, read-out: MIC values
[15] = Trichophyton equinum 182-76, read-out: MIC values
[16] = Trichophyton equinum 856-71, read-out: MIC values
[17] = Candida albicans A 7, read-out: MIC values
[18] = Candida albicans A 3140, read-out: MIC values
[19] = Candida albicans A 3141, read-out: MIC values
[20] = Candida albicans A 3144, read-out: MIC values
[21] = Candida albicans A 3145, read-out: MIC values
[22] = Candida albicans A 3165, read-out: MIC values
[23] = Candida albicans A 3166, read-out: MIC values
[24] = Candida albicans A 3167, read-out: MIC values
[25] = Candida albicans A 3168, read-out: MIC values
[26] = Candida albicans A 3169, read-out: MIC values
[27] = Candida albicans A 3171, read-out: MIC values
[28] = Candida albicans A 3190, read-out: MIC values
[29] = Candida albicans A 3191, read-out: MIC values
[30] = Candida albicans A 3194, read-out: MIC values
[31] = Candida albicans A 3196, read-out: MIC values

| MIC [1, 4] [µg/mL] | MIC [1, 5] [µg/mL] | MIC [1, 6] [µg/mL] | MIC [1, 7] [µg/mL] | MIC [1, 8] [µg/mL] | MIC [1, 9] [µg/mL] | MIC (Trichophyton quickeaneum) [µg/mL] | MIC [2] [µg/mL] | MIC (Trichophyton verrucosum; [10]) [µg/mL] | MIC (Trichophyton verrucosum; [11]) [µg/mL] | MIC (Trichophyton rubrum; [12]) [µg/mL] | MIC (Trichophyton rubrum; [13]) [µg/mL] | MIC (Trichophyton rubrum; [14]) [µg/mL] | MIC (Trichophyton tonsurans) [µg/mL] | MIC (Trichophyton equinum; [15]) [µg/mL] | MIC (Trichophyton equinum; [16]) [µg/mL] | MIC [3] [µg/mL] | MIC (Pasteurella multocida; Pasteurella multocida A 723) [µg/mL] | MIC (Candida albicans; [17]) [µg/mL] | MIC (Trichophyton violoceum) [µg/mL] | SMILES | other results |
| --- | --- | --- | --- | --- | --- | --- | --- | --- | --- | --- | --- | --- | --- | --- | --- | --- | --- | --- | --- | --- | --- |
| 6 (≈ 24.1 µM) | 6 (≈ 24.1 µM) | 6 (≈ 24.1 µM) | 6 (≈ 24.1 µM) | 6 (≈ 24.1 µM) | 3 (≈ 12 µM) | 0.1 (≈ 0.401 µM) | 6 (≈ 24.1 µM) | 0.8 (≈ 3.21 µM) | 6 (≈ 24.1 µM) | 0.4 (≈ 1.6 µM) | 0.4 (≈ 1.6 µM) | 0.4 (≈ 1.6 µM) | 3 (≈ 12 µM) | 0.4 (≈ 1.6 µM) | < 0.05 | 6 (≈ 24.1 µM) | 1.5 (≈ 6.02 µM) | 0.2 (≈ 0.802 µM) | 12.5 (≈ 50.1 µM) | [C-]#[N+]C(=C(C)CC)S(=O)(=O)c1ccc(C)cc1 [Example 27a, 1-isocyano-2-methyl-1-(4-toluenesulphonyl)-1-butene] | MIC (Candida albicans; [18]): 0.8 µg/mL (≈ 3.21 µM); MIC (Candida albicans; [19]): < 0.05 µg/mL; MIC (Candida albicans; [20]): 0.2 µg/mL (≈ 0.802 µM); MIC (Candida albicans; [21]): < 0.05 µg/mL; MIC (Candida albicans; [22]): 0.8 µg/mL (≈ 3.21 µM); MIC (Candida albicans; [23]): 3 µg/mL (≈ 12 µM); MIC (Candida albicans; [24]): 0.2 µg/mL (≈ 0.802 µM); MIC (Candida albicans; [25]): 0.2 µg/mL (≈ 0.802 µM); MIC (Candida albicans; [26]): 0.1 µg/mL (≈ 0.401 µM); MIC (Candida albicans; [27]): 0.2 µg/mL (≈ 0.802 µM); MIC (Candida albicans; [28]): < 0.05 µg/mL; MIC (Candida albicans; [29]): 0.1 µg/mL (≈ 0.401 µM); MIC (Candida albicans; [30]): < 0.05 µg/mL; MIC (Candida albicans; [31]): 0.4 µg/mL (≈ 1.6 µM) |
| 3 (≈ 12 µM) | 3 (≈ 12 µM) | 3 (≈ 12 µM) | 6 (≈ 24.1 µM) | 6 (≈ 24.1 µM) | 3 (≈ 12 µM) | 1.5 (≈ 6.02 µM) | 6 (≈ 24.1 µM) | 1.5 (≈ 6.02 µM) | 6 (≈ 24.1 µM) | 1.5 (≈ 6.02 µM) | 0.8 (≈ 3.21 µM) | 0.8 (≈ 3.21 µM) | 3 (≈ 12 µM) | 0.8 (≈ 3.21 µM) | 0.4 (≈ 1.6 µM) | 6 (≈ 24.1 µM) | 3 (≈ 12 µM) | 0.4 (≈ 1.6 µM) | 6 (≈ 24.1 µM) | [C-]#[N+]C(C(C)=CC)S(=O)(=O)c1ccc(C)cc1 (stereo not drawn) [Example 27b, 1-isocyano-2-methyl-l-(4-toluenesulphonyl)-2-butene] | MIC (Candida albicans; [18]): 0.8 µg/mL (≈ 3.21 µM); MIC (Candida albicans; [19]): < 0.05 µg/mL; MIC (Candida albicans; [20]): 0.4 µg/mL (≈ 1.6 µM); MIC (Candida albicans; [21]): < 0.05 µg/mL; MIC (Candida albicans; [22]): 1.5 µg/mL (≈ 6.02 µM); MIC (Candida albicans; [23]): 3 µg/mL (≈ 12 µM); MIC (Candida albicans; [24]): 0.4 µg/mL (≈ 1.6 µM); MIC (Candida albicans; [25]): 0.4 µg/mL (≈ 1.6 µM); MIC (Candida albicans; [26]): 0.4 µg/mL (≈ 1.6 µM); MIC (Candida albicans; [27]): 0.4 µg/mL (≈ 1.6 µM); MIC (Candida albicans; [28]): 0.1 µg/mL (≈ 0.401 µM); MIC (Candida albicans; [29]): 0.2 µg/mL (≈ 0.802 µM); MIC (Candida albicans; [30]): 0.4 µg/mL (≈ 1.6 µM); MIC (Candida albicans; [31]): 0.4 µg/mL (≈ 1.6 µM) |

| SMILES | MIC [1, 4] [µg/mL] | MIC [1, 5] [µg/mL] | MIC [1, 6] [µg/mL] | MIC [1, 7] [µg/mL] | MIC [1, 8] [µg/mL] | MIC [1, 9] [µg/mL] | MIC (Trichophyton quickeaneum) [µg/mL] | MIC [2] [µg/mL] | MIC (Trichophyton verrucosum; [10]) [µg/mL] | MIC (Trichophyton verrucosum; [11]) [µg/mL] | MIC (Trichophyton rubrum; [12]) [µg/mL] | MIC (Trichophyton rubrum; [13]) [µg/mL] | MIC (Trichophyton rubrum; [14]) [µg/mL] | MIC (Trichophyton tonsurans) [µg/mL] | MIC (Trichophyton equinum; [15]) [µg/mL] | MIC (Trichophyton equinum; [16]) [µg/mL] | MIC [3] [µg/mL] | MIC (Pasteurella multocida; Pasteurella multocida A 723) [µg/mL] | MIC (Candida albicans; [17]) [µg/mL] | MIC (Trichophyton violoceum) [µg/mL] | other results |
| --- | --- | --- | --- | --- | --- | --- | --- | --- | --- | --- | --- | --- | --- | --- | --- | --- | --- | --- | --- | --- | --- |
| Clc1ccc(COC(Cn2ccnc2)c2ccc(Cl)cc2Cl)c(Cl)c1 (stereo not shown) [miconazole, reference compound] | 3 (≈ 7.21 µM) | 0.2 (≈ 0.481 µM) | 0.4 (≈ 0.961 µM) | 0.4 (≈ 0.961 µM) | 25 (≈ 60.1 µM) | 0.4 (≈ 0.961 µM) | 0.1 (≈ 0.24 µM) | 1.5 (≈ 3.6 µM) | 0.8 (≈ 1.92 µM) | 0.8 (≈ 1.92 µM) | 0.1 (≈ 0.24 µM) | 0.8 (≈ 1.92 µM) | 0.8 (≈ 1.92 µM) | 0.1 (≈ 0.24 µM) | 0.4 (≈ 0.961 µM) | < 0.05 | 0.2 (≈ 0.481 µM) | – | – | 0.8 (≈ 1.92 µM) | MIC (Pasteurella multocida; Pasteurella multocida): > 100 µg/mL; MIC (Candida albicans; read-out: MIC values, Candida albicans A 7): 0.2 µg/mL (≈ 0.481 µM); MIC (Candida albicans; read-out: MIC values, Candida albicans A 3140): 0.1 µg/mL (≈ 0.24 µM); MIC (Candida albicans; read-out: MIC values, Candida albicans A 3141): < 0.05 µg/mL; MIC (Candida albicans; read-out: MIC values, Candida albicans A 3144): 0.8 µg/mL (≈ 1.92 µM); MIC (Candida albicans; read-out: MIC values, Candida albicans A 3145): < 0.05 µg/mL; MIC (Candida albicans; read-out: MIC values, Candida albicans A 3165): 0.2 µg/mL (≈ 0.481 µM); MIC (Candida albicans; read-out: MIC values, Candida albicans A 3167): < 0.05 µg/mL; MIC (Candida albicans; read-out: MIC values, Candida albicans A 3168): 100 µg/mL (≈ 240 µM); MIC (Candida albicans; read-out: MIC values, Candida albicans A 3169): 1.5 µg/mL (≈ 3.6 µM); MIC (Candida albicans; read-out: MIC values, Candida albicans A 3171): < 0.05 µg/mL; MIC (Candida albicans; read-out: MIC values, Candida albicans A 3190): < 0.05 µg/mL; MIC (Candida albicans; read-out: MIC values, Candida albicans A 3191): < 0.05 µg/mL; MIC (Candida albicans; read-out: MIC values, Candida albicans A 3194): 0.2 µg/mL (≈ 0.481 µM) |
